Assays:
[1] = system: membrane fractions of P. aeruginosa; test: GM-CSF binding to non-denatured cellular fractions (non-denatured PAGE, Western blotting); design: species or system Pseudomonas aeruginosa; settings: P. aeruginosa fractions incubated with GM-CSF, Western blotting (FIG. 22)
Experimental: Cell fractionation was done as described by George et al. (1986) with some modification. Briefly, cell pellets from stationary phase PAO1 were suspended in 1 ml of PBS buffer (pH7.2) containing 0.2 mg/mL lysozyme, protease inhibitor cocktail (Roche), chilled on ice, and sonicated (20 bursts, 10 s each at 70 W) with a Sonicator Q500 (Qsonica). The unbroken cells and debris were removed by centrifugation at 15,600×g for 5 min at 4° C. The supernatant was transferred to a 1.5 mL centrifuge tube, and the cell membranes were precipitated from the supernatant by centrifugation in a microcentrifuge at 15,600×g for 1 hour at 4° C. The supernatant was saved as cytoplasm fraction. To further separate inner and outer membrane proteins, the membrane pellets were thoroughly suspended in 0.1 ml of PBS buffer supplemented with 1% Sarkosyl by repeated pipetting. Following incubation for 30 minutes with intermittent mixing at room temperature, the suspension was centrifuged at 15,600×g for 1 hour at 4° C. […]
Different cellular components (30 μL) from P. aeruginosa were mixed with GM-CSF (20 ng) and incubated at room temperature for 2 hours. […] The separated samples were then subjected to Western blotting and detected by Human GM-CSF Monoclonal Antibody as described in whole cell binding assay.

whole cells of E. coli = test: GM-CSF binding assay to bacterial whole cells (slot blot immunoblotting); design: species or system Escherichia coli; settings: PBS, room temperature, 2 h, anti-rhGM-CSF immunoblot (FIG. 21)
Experimental: This Example describes experiments conducted to determine the capability of GM-CSF to bind to whole cells of P. aeruginosa and E. coli. In brief, bacteria harvested at stationary phases of growth were washed with PBS and adjusted to OD600 of 0.4 with PBS to ensure that an equal amount of cells was used for all GF-CSF binding tests. Suspensions of bacteria (10^6 CFU) were then incubated with and without different amount of recombinant human GM-CSF (rhGM-CSF, R&D systems) in a 40 μL volume at room temperature for 2 hours. After incubation, the cell suspension was centrifuged to separate supernatant (comprising buffer and unbound GM-CSF) and pellet (comprising cell and bound GM-CSF, if any), followed by the addition of 10 mM EDTA and boiling for 30 minutes to inactivate bacterial alkaline phosphatase activity. As control, PBS buffer with GM-CSF were processed in the similar manner. All the samples were then applied to Slot Blot (BioRad) for immunoblotting experiments. Anti-rhGMCSF developed in mice (Human GM-CSF MAb, Mouse IgG1, R&D system) was used as first antibody; Alkaline Phosphatase conjugated with Anti-mouse IgG was used to detect the binding of GM-CSF with BCIP/NBT (Promega) as substrates.

E. coli K12 = test: Effect of GM-CSF on planktonic E. coli K12 cells (total viable cells and persisters) at exponential phase, alone and with antibiotic; assay type: cell-based, Escherichia coli; settings: for % change in avg. CFU/mL by GM-CSF (compared to GM-CSF free control) 20 μg/mL Tet / % change in avg. CFU/mL by GM-CSF (compared to GM-CSF free control) With 2 μg/mL Cip / % change in avg. CFU/mL by GM-CSF (compared to GM-CSF free control) With 70 μg/mL Tob / % change in avg. CFU/mL by GM-CSF (compared to GM-CSF free control) With 200 μg/mL Gen: E. coli K12 exponential phase, 0.17 pM GM-CSF; for % change in avg. CFU/ml after adding factor + CIP / % change in avg. CFU/ml after adding factor + TET / % change in avg. CFU/ml after adding factor + TOB / % change in avg. CFU/ml after adding factor + GEN: planktonic E. coli K12; for % change in avg. CFU/ml after adding factor + CIP: 2.43 pg/mL GM-CSF with 2 μg/mL ciprofloxacin; for % change in avg. CFU/ml after adding factor + TET: 2.43 pg/mL GM-CSF with 20 μg/mL tetracycline; for % change in avg. CFU/ml after adding factor + TOB: 2.43 pg/mL GM-CSF with 70 μg/mL tobramycin; for % change in avg. CFU/ml after adding factor + GEN: 2.43 pg/mL GM-CSF with 200 μg/mL gentamicin
Experimental: This Example describes the treatment of planktonic P. aeruginosa PAO1, PDO300 and Escherichia coli K12, with GM-CSF introduced directly or together with an antibiotic to test the synergy. All experiments were conducted with cells harvested from exponential phase subcultures with an optical density at 600 nm (OD600) of 0.3 to 0.4.
In brief, after preparing an overnight culture of the tested strain in 25 ml LB medium, a subculture was prepared with an OD600 of 0.01 in 50 mL LB medium. The subculture was incubated at 37° C. with shaking at 200 rpm for 3-4 h, till an OD600 of 0.3 to 0.4 was reached. The exponential phase subculture was then divided equally into two centrifuge tubes, each containing 25 mL of the subculture. The subcultures were washed twice with 0.85% NaCl buffer by vortexing and then centrifuging at 4° C., 8000 rpm for 10 min each time. The washed subcultures/cells were resuspended in 25 mL 0.85% NaCl buffer and vortexed gently for 1 min. One of the tubes of subculture was selected for isolation of persisters by adding 200 μg/mL ciprofloxacin (for PAO1 and PDO300 strains) or 100 μg/mL ampicillin (for E. coli K12 strain). After adding the antibiotic for persister isolation, the subculture was incubated at 37° C., shaking at 200 rpm for 3.5 h.
To test the effects of GM-CSF on viability of persisters, the second tube was used to quantify the total number of viable cells and 1 mL of the washed persister cells was divided into 6 microcentrifuge tubes; 3 were control and the other 3 were GM-CSF treatment samples. In the treatment samples, GM-CSF was added to a concentration of 2.43 pg/mL (or 0.17 pM), the same as found in healthy human bodies. The control samples were supplemented with the same concentration of PBS and BSA as present in 2.43 pg/mL (or 0.17 pM) GM-CSF samples.
After incubating at 37° C. for 1 h with shaking at 200 rpm, the samples were plated on LB agar plates (15 g/L bacto agar) using drop plate method. The agar plates were then incubated for 24 h at 37° C. to count the total number of persister cells and understand the effect of 0.17 pM GM-CSF on the viability of persister cells.
To test the synergy with antibiotics, the above samples were then incubated at 37° C. for 3.5 h with shaking at 200 rpm after adding the selected antibiotic. After 3.5 h, the CFU of samples was quantified in the same way to understand if there is any synergy between GM-CSF and antibiotic. Similar treatments were performed on the total population in exponential phase as well. Apart from exponential phase, the synergistic effects of GM-CSF with antibiotics on total viable cells and persisters were also evaluated at stationary phase but PBS buffer (pH=7.4) was used in the experiments instead of 0.85% NaCl solution. Moreover, the 1 h and 3.5 h treatments were performed as co-treatments.

[2] = total viable cells, listed as factor

## GM-CSF: granulocyte macrophage-colony stimulating factor, a cytokine secreted by macrophages; recombinant human GM-CSF (R&D systems) in binding tests
[1]
  binding to cellular components: preferentially binds to membrane fractions
Whole cells of E. coli
  binding to whole cells: not
E. coli K12; compared to the pathogenic strain P. aeruginosa
  effect on E. coli persister cells: ineffective
E. coli K12; persisters
  % change in avg. CFU/mL by GM-CSF (compared to GM-CSF free control) 20 μg/mL Tet: −6.7%
  % change in avg. CFU/mL by GM-CSF (compared to GM-CSF free control) With 2 μg/mL Cip: −4.8%
  % change in avg. CFU/mL by GM-CSF (compared to GM-CSF free control) With 70 μg/mL Tob: +1.5%
  % change in avg. CFU/mL by GM-CSF (compared to GM-CSF free control) With 200 μg/mL Gen: +11.1%
  % change in avg. CFU/ml after adding factor + CIP: −6.18%
  % change in avg. CFU/ml after adding factor + TET: +12.00%
  % change in avg. CFU/ml after adding factor + TOB: +11.16%
  % change in avg. CFU/ml after adding factor + GEN: +18.52%
E. coli K12; persisters, listed as factor
  % change in avg. CFU/ml after adding factor + CIP: −6.18%
  % change in avg. CFU/ml after adding factor + TET: +12.00%
  % change in avg. CFU/ml after adding factor + TOB: +11.16%
  % change in avg. CFU/ml after adding factor + GEN: +18.52%
E. coli K12; total viable cells
  % change in avg. CFU/mL by GM-CSF (compared to GM-CSF free control) 20 μg/mL Tet: −19.0%
  % change in avg. CFU/mL by GM-CSF (compared to GM-CSF free control) With 2 μg/mL Cip: +5.9%
  % change in avg. CFU/mL by GM-CSF (compared to GM-CSF free control) With 70 μg/mL Tob: −32.0%
  % change in avg. CFU/mL by GM-CSF (compared to GM-CSF free control) With 200 μg/mL Gen: −31.3%
  % change in avg. CFU/ml after adding factor + CIP: +5.88%
  % change in avg. CFU/ml after adding factor + TET: −19.05%
  % change in avg. CFU/ml after adding factor + TOB: −32.00%
  % change in avg. CFU/ml after adding factor + GEN: −31.34%
E. coli K12; [2]
  % change in avg. CFU/ml after adding factor + CIP: +5.88%
  % change in avg. CFU/ml after adding factor + TET: −19.05%
  % change in avg. CFU/ml after adding factor + TOB: −32.00%
  % change in avg. CFU/ml after adding factor + GEN: −31.34%

— US9370189B2, “Controlling Pseudomonas aeruginosa persister cells with GM-CSF” (priority 2012, dated 2016)
